“Also recorded” adds a separate entry of the source.
Assays:
human PBMCs [1] = assay: Cytokine release from freshly isolated PBMCs (standard culture), cytokine bead array; assay type: cell-based; conditions: fresh PBMCs, 10^6/ml, mAb 1 μg/ml, 24 hours
Excerpt: For the induction of cytokine release, the present invention as well as this comparative example uses a system of PBMC stimulation as described below to study the response of human PBMCs to immune-modulating agents. This system employs freshly prepared PBMCs, isolated from heparinized venous blood by centrifugation over a density gradient (Lymphocyte Separation Medium LSM 1077, PAA Laboratories, Pasching, Germany) following the manufacturer's instructions. […]
In this tissue culture system, freshly isolated PBMCs were stimulated with soluble TGN1412 provided by TheraMab GmbH, Wurzburg. […] After 24 hours, a panel of cytokines including the major pro- and anti-inflammatory factors detected in plasma of the volunteers of the TGN1412 trial (Suntharalingam et al., 2006) were analyzed by the cytokine-bead-array (CBA) technology (Becton Dickinson, Mountain View, Calif., USA) following the manufacturer's instructions. […]
PBMCs from a healthy donor were isolated by Ficoll density centrifugation and cultured in 0.2 ml RPMI1640 medium supplemented with 10% AB serum for 24 hours at 10^6/ml in 96 well flat bottom tissue culture plates. Cytokines in the supernatants were analyzed after 24 hours of incubation by cytokine bead array. […]

human PBMCs [2] = assay: Cytokine release from precultured PBMCs restimulated at 10^6/ml, cytokine bead array; assay type: cell-based; conditions: high-density precultured PBMCs, mAb 1 μg/ml, OKT3 compared with TGN1412
Description: For the experiment in FIG. 1B PBMCs from a healthy donor were cultured in 1.5 ml medium for 2 days at 10^7/ml in 24 well flat bottom tissue culture plates before being washed and readjusted to 10^6/ml. With these cells, the same experiment was performed as described in Example 1.
For the experiment of FIG. 3 PBMCs were cultured at 10^6/ml (left bars) or at 10^7/ml (right bars) for 2 days before being stimulated by TGN1412 at 10^6/ml as described in FIG. 1.
For the experiment of FIG. 4 fresh PBMCs (left bars of triplets), and PBMCs precultured at 10^7/ml for 24 (middle bars of triplets) or 48 hours (right bars of triplets) were stimulated with OKT3 or TGN1412 for 24 hours under the conditions given in FIG. 1.
For the experiment of FIG. 5 PBMCs were cultured for two days at high density (10^7/ml, right bars of triplets) or at low density (10^6/ml, left and middle bars of triplets) in 1.5 ml cultures. In the group shown as middle bars of triplets, these low density cultures additionally contained an insert with a semipermeable membrane on which additional PBMCs were cultured at high-density (10^6/ml below membrane, 10^7/ml above membrane, middle bars of triplets).
Cell density. […]
High-density precultured PBMCs were prepared as in FIG. 1B and stimulated with 1 μg/ml of OKT3 or TGN1412. Supernatants were harvested at the times indicated and TNF content was analysed as in FIG. 1.

human PBMCs [3] = assay: PBMC proliferation, 3H-thymidine incorporation; assay type: cell-based; conditions: 3H-thymidine on day 3, 16 hours
Description: Fresh and precultured PBMCs were prepared and cultured as described for FIGS. 1 A and B, respectively. On day 3, 1 μCi of 3H-thymidine was added, and cultures were harvested 16 hours later and processed for liquid scintillation counting. Besides cytokine release, polyclonal T-cell activation results in proliferation which can be measured as radioactivity incorporated, here incorporated as tritiated thymidine. […] Thus, proliferation can also be used as a readout.

CD4 T-cells in PBMCs = assay: Intracellular TNF / IFN-gamma staining of CD4 T-cell subsets (flow cytometry, brefeldin A); assay type: cell-based, human; conditions: mAb 1 μg/ml, 18 hours, brefeldin A last 4 hours; CD45RO+ vs CD45RO- CD4 T-cells
Description: 2 day high-density precultured PBMCs were stimulated for 18 hours with 1 μg/ml of OKT3 or of TGN1412. Instead of 18 hours stimulation for a period of time between 15 to 20 hours, preferably 16 to 18 hours, is generally possible. During the last 4 hours of culture, 5 μg/ml of brefeldin A was added to block cellular export of cytokines. After cell-surface staining with fluorochome-conjugated mAb to CD4 and CD45RO (memory marker), cells were fixed, permeabilized and stained with mAb to TNF—left panels—or IFNgamma—right panels—(all from BD Pharmingen, Mountain View, Calif., USA)
15.000 live-gated events were acquired on a BD Calibur flow cytometer and data were analyzed using FlowJo software (Three Star Inc., Ashland, Oreg., USA). The cytokine storm elicited by OKT3 in patients is a well-known phenomenon, and the accompanying information provided with this drug (Muromonomab, Janssen-CILAG) explicitly warns against this syndrome. […] In parallel, the cell surface phenotype of the stimulated PBMCs was determined. The main cytokine-producing T-cell subset, the CD4 T-cells, were thus identified and further subdivided into naive (CD45R0−) and memory (CD45RO+) subsets.

patients = patients receiving mAb therapy; cited from earlier work
PBMCs [4] = assay type: cell-based, human
PBMCs [5] = assay type: cell-based, human; remark: listed apart in the source

OKT3: CD3-specific mAb addressing the T-cell antigen receptor, clinical-grade, Janssen-Cilag
cytokine release (TNF, IFN-gamma, IL-2, IL-10) (human PBMCs [1]): highly effective in inducing TNF, IFN-gamma, and IL-2; also recorded: ability | kinetics of TNF release (human PBMCs [2]): follows the same kinetics | proliferation (human PBMCs [3]; 2 day high-density precultured PBMCs): stimulated the proliferation of both, fresh and precultured PBMCs | proliferation (human PBMCs [3]; fresh PBMCs): stimulated the proliferation of both, fresh and precultured PBMCs | cellular source of TNF and IFN-gamma production (CD4 T-cells in PBMCs): predominantly in the CD4 memory subset | systemic cytokine release (patients): induce the systemic release of proinflammatory cytokines

Staphylococcal Enterotoxin B
proliferative response (PBMCs [4]): strongly enhances the sensitivity of this assay

concanavalin A [ConA]
proliferative T-cell response (PBMCs [5]): strongly enhanced

phytohemagglutinin [PHA]
proliferative T-cell response (PBMCs [5]): strongly enhanced
